In assay [1] the test system is TS-induced neutrophil influx in BALF. Briefly: BALF neutrophilia induced by tobacco smoke exposure in mice. The format is in vivo, C57BL6J female mice. The conditions noted are these: for neutrophils in BALF: 4 days TS exposure. As to the method: C57BL6J female mice aged 9–10 weeks (Harlan Laboratories S.r.l) in groups of 8 were exposed, via whole-body inhalation, twice daily 1 h apart, for 4 consecutive days, to the tobacco smoke (TS) (generated using “Marlboro Gold: 9 mg of tar and 0.7 mg nicotine”) of two cigarettes/exposure on days 1 and 2, three cigarettes/exposure on day 3, and four cigarettes/exposure on the last exposure day in clear polycarbonate chambers (27 cm × 16 cm × 12 cm). The smoke was introduced into the exposure chambers (21100-790 Ugo Basile, Biological Research Instruments, Comerio, Varese, Italy), with the airflow generated by using a mechanical ventilator (7025 Rodent Ventilator, Ugo Basile). Each exposure chamber was connected to a different ventilator set at a rate of 100 mL/min (frequency: 50 strokes/min; volume: 2 mL/stroke). At regular intervals (after burning two cigarettes), the exposure chambers were opened and aired. Sham and control mice were exposed to air only in the same manner for the same duration of time.
CHF6297 (0.03 and 0.3 mg/kg) and budesonide (0.3 mg/kg), our reference compound and vehicle (0.2% Tween 80 in saline), respectively, were administered intranasally in a volume of 30 µL, 1 h before and 5 h after TS exposure under light isoflurane anesthesia.
A BAL was performed using a volume of 0.6 mL of phosphate-buffered saline that was gently instilled and withdrawn three times using a 12-mL syringe. BALF cells were separated by centrifugation (10 min at 3,070 g), and the supernatant was removed. The resulting cell pellet was resuspended in a known volume of PBS, and the total cell numbers were calculated by counting a stained (Turk’s stain) aliquot under a microscope using a hemacytometer. The cell pellet was resuspended to approximately 10^5 cells per ml, and cytospin slides were prepared by centrifugation (8 min at 72.26 g; Shandon Cytospin; Thermo Shandon Ltd., Runcorn, Cheshire, United Kingdom). The slides were air-dried and stained using Wright–Giemsa stain, following the manufacturer’s instructions. A differential cell count was performed using light microscopy. Approximately 400 cells were counted from each slide. The cells were identified using standard morphometric techniques.

In assay [2] the target is T1, human p38δ (Homo sapiens, UniProt O15264).
T1 construct: GST; purchased Invitrogen
T1 sequence (O15264 1-365): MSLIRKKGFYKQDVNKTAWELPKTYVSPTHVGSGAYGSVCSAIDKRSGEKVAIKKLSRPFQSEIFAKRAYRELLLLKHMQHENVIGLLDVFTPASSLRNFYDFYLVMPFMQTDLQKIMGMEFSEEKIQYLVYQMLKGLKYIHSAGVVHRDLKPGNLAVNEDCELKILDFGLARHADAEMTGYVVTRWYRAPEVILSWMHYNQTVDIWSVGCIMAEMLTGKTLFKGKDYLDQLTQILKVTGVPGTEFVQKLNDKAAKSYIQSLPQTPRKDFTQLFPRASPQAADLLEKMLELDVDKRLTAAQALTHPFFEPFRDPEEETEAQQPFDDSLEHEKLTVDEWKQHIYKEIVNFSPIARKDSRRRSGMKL
Briefly: KINOMEscan competition binding assay (DiscoverX), p38δ. The conditions noted are these: read-out: Kd (mean ± s.d.). From the text: The KINOMEscan® platform (DiscoverX) was used, which uses a novel and proprietary active site-directed competition binding assay to quantitatively measure the interactions between human p38 isoforms and the target compound.

For assay [3], the target named is T1, human p38δ. Briefly: AlphaScreen kinase activity assay, human p38δ. Format: biochemical. As to the method: The inhibitory activity of CHF6297 was determined using an AlphaScreen® (PerkinElmer)-based kinase activity assay as previously described ([Armani et al., 2022]). Kinase reactions consisted of 25 mM 4-(2-hydroxyethyl)-1-piperazine ethanesulfonic acid (HEPES), pH 7.5; 10 mM MgCl2; 100 μM Na3VO4; 2 mM DTT; 0.05 mg/mL Tween^TM 20; 100 pM solution of p38α, p38β, p38δ, or p38γ (Invitrogen); 1% DMSO; and 0.3 μg/mL ATF-2 fusion protein (New England Biolabs). Compounds were incubated under these conditions for 2 h, at 25°C, prior to the initiation of kinase activity by the addition of 250 μM ATP. […] Detection was performed by measuring luminescence following the addition of AlphaScreen donor beads (PerkinElmer, 6765300) and Protein A AlphaScreen acceptor beads (PerkinElmer, 6760137), both at a final concentration of 20 μg/mL. IC50 values were determined from concentration–response curves. […]
CHF6297 was tested in biochemical enzymatic assays to determine its potency as an inhibitor of human p38α (MAPK14) and of the other human p38 isoforms, p38β (MAPK11), p38γ ([…]), and p38δ ([…]) ([Armani et al., 2022]). Activity in the primary screening assay was determined using AlphaScreen technology, in which a peptide (ATF2) is phosphorylated by the appropriate GST-tagged p38 protein isoform in the presence of CHF6297 at concentrations from semi-logarithmic dilutions. […]
(Bead proximity is the source of the signal in Alpha formats.)

For assay [4], the system named is LPS-induced neutrophil influx in BALF. Briefly: LPS-induced BALF neutrophilia in rats.
Description: For intratracheal (i.t.) administration of LPS or IL-1β, animals were anesthetized with sevoflurane (4% in oxygen), and a laryngoscope was moved forward into the mouth to visualize the trachea and guide the insertion of a fine-tipped PE 100 tube (air-jet delivery system) directly into the trachea and located 1–2 mm above the carina bifurcation. LPS or IL-1β at a concentration of 5 μg/kg and 0.3 μg/kg, respectively, was prepared as a saline solution in a 0.5 mL/kg volume and was blown into the airways during the spontaneous inspiration phase in an air volume of 2 mL.
Each dose group was allocated to a separate system, and each system was housed in an individual ventilated hood.
Powder generation: Compound and vehicle blends were compressed into canisters by using a hydraulic press at 50 bar to prepare a stable “tablet” and ensure a uniform pack density. The Wright Dust Feeder (WDF) comprised an electric motor, gears, a scraper blade, air entry, and a final jet and baffle array. The scraper blade scraped off a fine layer of powder, driven by the motor, and the output speed was determined by the configuration of the gears. The scraped powder was then blown out of the dust feed at its base through a jet which focused the powder stream at a baffle, thus reducing aggregation and producing a fine particulate. The WDF was attached to an aerosol conditioning pre-chamber for the delivery of the powder to the inhalation tower. The generation of the powder was monitored throughout the exposure periods either visually or electronically with a dust monitor.
Inhalation tower: The nose-only inhalation tower was a modular apparatus of anodized aluminum comprising a base unit, two animal sections, and a top section, connected to an earth lead to prevent the formation of any static build-up. During the exposures, the rats were held in restraining tubes, with their snouts protruding into the exposure chamber (see Supplementary Material, Figure 1). The rate of airflow through the WDF was 19 L/min, and that of the exhaust airflow was 20 L/min (vehicle, 0.1 and 1 mg/kg doses) or 40 L/min (0.03 mg/kg doses). The air supply and extract were monitored using in-line flowmeters and recorded manually.
The inhaled dose was derived using the following equation ([Alexander et al., 2008]): delivered dose (μg/kg) = (Conc. × RMV × D)/BW, where Conc. = concentration of CHF-6297 in the air inhaled (µg/L); RMV = volume of air inhaled in 1 min (L/min) 0.608 × BW (kg) 0.852; D = duration of exposure to the aerosol (min); and BW = body weight (kg).
Animals were dosed either 1 h (dose–response curve) or 24 h (duration of action) before LPS challenge. Four hours after endotoxin challenge or saline injection, bronchoalveolar lavage fluid (BALF) was collected for cell counting.
Animals were anesthetized with sevoflurane (4% in oxygen) and euthanized by bleeding from the abdominal aorta. BALF was obtained by gently washing the lungs with three aliquots (4 mL each) of 100 mL of solution A [Hank’s balanced salt solution (HBSS) × 10; 100 mL of 100 mM EDTA; 10 mL of 1 mM HEPES; and 790 mL of distilled water]. […] The resulting BALF was centrifuged at 800 × g for 10 min at 4°C. […] The cell count per animal was calculated from the number of cells for 1 µL of BALF multiplied by the volume used for the resuspension of the cell pellet.
Another assay has as its system rat PBMCs. Briefly: TNF-α release in LPS-stimulated PBMCs. The format is cell-based. On the procedure:
Peripheral blood mononuclear cells (PBMCs) were isolated from the blood of healthy human volunteers and Wistar rats (250–350 gr; Charles River, Calco, Italy) using a standard density gradient centrifugation technique. The citrated blood was placed onto Histopaque^TM and centrifuged. The PBMCs were then removed from the density gradient interface and washed in phosphate-buffered saline (PBS). The PBMCs were suspended in RPMI 1640 medium (without serum), aliquoted into a 96-well plate, and incubated at 37°C for 3 h in a humidified incubator. After incubation, the medium was replaced (with a medium containing 1% fetal bovine serum), and the plate was incubated at 37°C, for 1 h, in the presence of a test compound or the appropriate vehicle. LPS (10 ng/mL), or an appropriate vehicle control, was then added to the cells, and the plate was returned to the incubator for 18 h. Cell-free supernatants were removed and assayed for TNF-α levels using MSD plates on the SECTOR Imager 6000 (Meso Scale).

The structures appear in SMILES notation. A value given as a limit tells only on which side of the number the result lay.

Usually Kd stands for the concentration at which binding is half-saturated. One may read the IC50 as the concentration that inhibits the measured activity by half. In general, ED50 refers to the dose at which the effect has come halfway, by size or by number of responders. Turning to `C[C@H]1CCCCN1c1nnc2ccc(O[C@@H]3CC[C@H](NC(=O)Nc4cc(C(C)(C)C)nn4-c4cnn(CCN(C)C)c4)c4ccccc43)cn12` [CHF6297], in assay [1] (0.03 mg/kg i.n., 1 h before and 5 h after TS), the “% of inhibition of neutrophil recruitment” value was 29.7 ± 15.3%. The “neutrophils in BALF” value in assay [1] (0.03 mg/kg i.n.) is recorded as 0.4 ± 0.1 × 10^5 cells/mL; in assay [1] (0.3 mg/kg i.n.), 0.2 ± 0.1 × 10^5 cells/mL; in assay [4] (0.1 mg/kg nose-only dry powder, 1 h before LPS, BALF 4 h after challenge) it was 1.18 × 10^6 ± 0.27 × 10^6 neutrophils; in assay [4] (0.1 mg/kg nose-only dry powder, 24 h before LPS), 1.9 × 10^6 ± 0.3 × 10^6 neutrophils; in assay [4] (1 mg/kg nose-only dry powder, 1 h before LPS, BALF 4 h after challenge), 0.7 × 10^6 ± 0.12 × 10^6 neutrophils; in assay [4] (1 mg/kg nose-only dry powder, 24 h before LPS) it was 1.45 × 10^6 ± 0.19 × 10^6 neutrophils. Further, in assay [1] (0.3 mg/kg i.n., 1 h before and 5 h after TS), the “% inhibition of neutrophilia” value was found to be 62.0 ± 8.4%. For the same molecule, on human p38δ [2], the Kd was > 1000 nM. In addition, at human p38δ [3], the “IC50 fold-difference vs. human p38α” value is recorded as >7,000. Further, the IC50 was > 1000 nM at human p38δ [3] (n = 3, read-out: IC50 (mean ± s.d.)) and 1.4 nM with rat PBMCs (PBMC, LPS 10 ng/mL, 18 h). For the same molecule, the ED50 in assay [4] (Rattus norvegicus, Neutrophil, read-out: ED50, inhibition of pulmonary neutrophilia) was 0.064 mg/kg. Also, the “fold less potent than AZD7624” value in the assay with rat PBMCs (TNF-α release) is given as 7 fold.

These data come from publication PMC10973839, “CHF6297: a novel potent and selective p38 MAPK inhibitor with robust anti-inflammatory activity and suitable for inhaled pulmonary administration as dry powder” (Frontiers in Pharmacology, 2024).
